Data as given in patent US8101774B2, “Ester derivatives and medicinal use thereof” (Japan Tobacco Inc., priority 2004, dated 2012).

Molecular target: T1, Microsomal triglyceride transfer protein (MTP) from human small intestine microsome (Homo sapiens, UniProt P55157)
T1 construct: Human small intestine microsome was dialyzed against 10 mM phosphate buffer; tissue Tissue Transforming Technologies, Inc; host or cells: human small intestine microsome
Test: Inhibition test of interliposomal triglyceride (TG) transfer activity by MTP
Format: biochemical
Conditions: purified MTP from human small intestine microsome, 37° C., 1.5 hours
Summary of the method: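 DEAE-purified human small intestine MTP (50 μL of 20 μg/mL) incubated 1.5 hours at 37° C with ^14C-triolein donor and unlabelled acceptor SUV liposomes in pH 7.4 Tris buffer with 0.5% BSA. Donor removed on DEAE cellulose; acceptor radioactivity counted, blank-corrected against DMSO control, giving percent inhibition and IC50.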

T1 sequence (P55157 19-894): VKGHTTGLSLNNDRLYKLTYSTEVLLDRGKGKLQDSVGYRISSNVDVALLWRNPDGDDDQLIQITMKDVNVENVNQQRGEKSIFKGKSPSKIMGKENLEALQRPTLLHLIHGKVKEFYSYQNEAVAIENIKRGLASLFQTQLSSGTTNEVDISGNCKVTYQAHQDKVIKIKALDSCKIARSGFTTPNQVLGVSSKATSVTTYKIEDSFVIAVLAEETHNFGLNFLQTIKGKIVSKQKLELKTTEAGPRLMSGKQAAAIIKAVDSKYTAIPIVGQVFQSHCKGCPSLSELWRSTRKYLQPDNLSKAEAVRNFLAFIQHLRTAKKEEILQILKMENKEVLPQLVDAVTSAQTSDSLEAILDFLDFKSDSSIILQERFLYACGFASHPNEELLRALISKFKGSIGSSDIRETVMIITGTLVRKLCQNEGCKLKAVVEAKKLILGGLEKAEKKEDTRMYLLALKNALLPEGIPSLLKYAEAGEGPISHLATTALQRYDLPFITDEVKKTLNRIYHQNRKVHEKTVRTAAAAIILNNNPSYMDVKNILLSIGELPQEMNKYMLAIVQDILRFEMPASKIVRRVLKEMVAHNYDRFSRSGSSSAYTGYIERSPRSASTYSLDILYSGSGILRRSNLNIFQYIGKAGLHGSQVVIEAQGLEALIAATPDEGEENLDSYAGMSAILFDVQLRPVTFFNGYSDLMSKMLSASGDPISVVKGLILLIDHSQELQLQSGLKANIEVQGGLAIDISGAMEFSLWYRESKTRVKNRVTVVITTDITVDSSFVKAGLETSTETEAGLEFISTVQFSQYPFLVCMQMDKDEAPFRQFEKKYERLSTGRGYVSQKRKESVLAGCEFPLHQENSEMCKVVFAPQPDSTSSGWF
T1 sequence (P07237 18-508 partner): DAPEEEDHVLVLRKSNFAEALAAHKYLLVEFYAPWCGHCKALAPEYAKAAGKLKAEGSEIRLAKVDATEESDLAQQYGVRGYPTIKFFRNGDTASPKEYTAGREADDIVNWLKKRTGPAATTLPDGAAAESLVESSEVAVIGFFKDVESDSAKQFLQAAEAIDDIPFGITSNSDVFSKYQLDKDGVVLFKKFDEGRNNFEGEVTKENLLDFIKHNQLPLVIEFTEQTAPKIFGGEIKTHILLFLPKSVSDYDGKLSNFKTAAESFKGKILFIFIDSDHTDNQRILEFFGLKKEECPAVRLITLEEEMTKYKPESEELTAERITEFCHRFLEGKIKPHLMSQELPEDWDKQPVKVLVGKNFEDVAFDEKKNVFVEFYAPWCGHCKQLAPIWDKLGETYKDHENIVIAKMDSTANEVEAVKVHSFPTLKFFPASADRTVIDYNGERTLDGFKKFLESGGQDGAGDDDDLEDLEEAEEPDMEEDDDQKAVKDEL

Row | IC50 [nM] | SMILES
1 | < 10 | CCOC(=O)c1ccc(OC(=O)CCCc2ccc(NC(=O)c3ccccc3-c3ccc(C(F)(F)F)cc3)c(C(=O)N3CCCC3)c2)c(F)c1 [Compound 1-16, 3-fluoro-4-(4-{3-(pyrrolidine-1-carbonyl)-4-[(4′-trifluoromethylbiphenyl-2-carbonyl)amino]phenyl}butyryloxy)benzoic acid ethyl ester]
2 | < 10 | CN(C)C(=O)c1cc(CCCC(=O)Oc2ccc(C(=O)OCc3ccc(Cl)cc3)cc2)ccc1NC(=O)c1ccccc1-c1ccc(C(F)(F)F)cc1 [Compound 1-79, 4-[4-(3-dimethylcarbamoyl-4-{(4′-trifluoromethylbiphenyl-2-carbonyl)amino}phenyl)butyryloxy]benzoic acid 4-chlorobenzyl ester]
3 | < 10 | CN(C)C(=O)COC(=O)c1ccc(OC(=O)CCCc2ccc(NC(=O)c3ccccc3-c3ccc(C(F)(F)F)cc3)c(C(=O)N(C)C)c2)cc1 [Compound 1-85, 4-[4-(3-dimethylcarbamoyl-4-{(4′-trifluoromethylbiphenyl-2-carbonyl)amino}phenyl)butyryloxy]benzoic acid dimethylcarbamoylmethyl ester]
4 | < 10 | CN(C)C(=O)c1cc(CCCC(=O)Oc2ccc(C(=O)OCCCOCc3ccccc3)cc2)ccc1NC(=O)c1ccccc1-c1ccc(C(F)(F)F)cc1 [Compound 1-90, 4-[4-(3-dimethylcarbamoyl-4-{(4′-trifluoromethylbiphenyl-2-carbonyl)amino}phenyl)butyryloxy]benzoic acid 3-benzyloxypropyl ester]
5 | 10 to 100 | COC(=O)c1ccc(OC(=O)CCCc2ccc(NC(=O)c3ccccc3-c3ccc(C(F)(F)F)cn3)c(C(=O)N(C)C)c2)cc1 [Compound 1-19, 4-(4-{3-dimethylcarbamoyl-4-[2-(5-trifluoromethylpyridin-2-yl)benzoylamino]phenyl}butyryloxy)benzoic acid methyl ester]
6 | < 10 | COC(=O)c1ccc(OC(=O)CCCc2ccc(NC(=O)c3ccccc3-c3ccc(C(F)(F)F)cc3)c(C(=O)N(C)C)c2)c(C(=O)OC)c1 [Compound 1-33, 4-(4-{3-dimethylcarbamoyl-4-[(4′-trifluoromethylbiphenyl-2-carbonyl)amino]phenyl}butyryloxy)isophthalic acid dimethyl ester]
7 | < 10 | COC(=O)c1ccc(OC(=O)CCCc2ccc(NC(=O)c3ccccc3-c3ccc(C(F)(F)F)cc3)c(C(=O)N(C)C)c2)c(F)c1 [Compound 1-10, 4-(4-{3-dimethylcarbamoyl-4-[(4′-trifluoromethylbiphenyl-2-carbonyl)amino]phenyl}butyryloxy)-3-fluoro benzoic acid methyl ester]
8 | < 10 | CCC(=O)c1ccc(OC(=O)CCCc2ccc(NC(=O)c3ccccc3-c3ccc(C(F)(F)F)cc3)c(C(=O)N(C)C)c2)cc1 [Compound 1-88, 4-(3-dimethylcarbamoyl-4-{(4′-trifluoromethylbiphenyl-2-carbonyl)amino}phenyl)butyric acid 4-propionylphenyl ester]
9 | < 10 | CN(C)C(=O)c1cc(CCCC(=O)Oc2ccc(-c3nnn(C)n3)cc2)ccc1NC(=O)c1ccccc1-c1ccc(C(F)(F)F)cc1 [Compound 1-95, 4-(3-dimethylcarbamoyl-4-{(4′-trifluoromethylbiphenyl-2-carbonyl)amino}phenyl)butyric acid 4-(2-methyl-2H-tetrazol-5-yl)phenyl ester]
10 | < 10 | COC(=O)c1cc(C(=O)OC(C)C)cc(C)c1OC(=O)CCCc1ccc(NC(=O)c2ccc(C)nc2-c2ccc(C(F)(F)F)cc2)c(C(=O)N(C)C)c1 [Compound 1-111, 4-[4-(3-dimethylcarbamoyl-4-{[6-methyl-2-(4-trifluoromethylphenyl)pyridine-3-carbonyl]amino}phenyl)butyryloxy]-5-methylisophthalic acid 1-isopropyl ester 3-methyl ester]
11 | < 10 | CCc1cc(C(=O)OC)cc(Cl)c1OC(=O)CCCc1ccc(NC(=O)c2ccc(C)nc2-c2ccc(C(F)(F)F)cc2)c(C(=O)N(C)C)c1 [Compound 1-73, 3-chloro-4-[4-(3-dimethylcarbamoyl-4-{[6-methyl-2-(4-trifluoromethylphenyl)pyridine-3-carbonyl]amino}phenyl)butyryloxy]-5-ethylbenzoic acid methyl ester]
12 | < 10 | COC(=O)c1cc(OC)c(OC(=O)CCCc2ccc(NC(=O)c3ccc(C)nc3-c3ccc(C(F)(F)F)cc3)c(C(=O)N(C)C)c2)c(OC)c1 [Compound 1-39, 4-[4-(3-dimethylcarbamoyl-4-{[6-methyl-2-(4-trifluoromethylphenyl)pyridine-3-carbonyl]amino}phenyl)butyryloxy]-3,5-dimethoxybenzoic acid methyl ester]
13 | < 10 | CCOC(=O)c1cc(OC)c(OC(=O)CCCc2ccc(NC(=O)c3ccc(C)nc3-c3ccc(C(F)(F)F)cc3)c(C(=O)N(C)C)c2)c(C(=O)OC)c1 [Compound 1-54, 4-[4-(3-dimethylcarbamoyl-4-{[6-methyl-2-(4-trifluoromethylphenyl)pyridine-3-carbonyl]amino}phenyl)butyryloxy]-5-methoxyisophthalic acid 1-ethyl ester 3-methyl ester]
14 | 10 to 100 | COC(=O)c1ccc(OC(=O)CCCc2ccc(NC(=O)c3ccccc3-c3ccc(C(F)(F)F)cc3)c(C(=O)N3CCOCC3)c2)cc1 [Compound 1-26, 4-(4-{3-(morpholine-4-carbonyl)-4-[(4′-trifluoromethylbiphenyl-2-carbonyl)amino]phenyl}butyryloxy)benzoic acid methyl ester]
15 | < 10 | COC(=O)c1ccc(OC(=O)CCCc2ccc(NC(=O)c3ccccc3-c3ccc(C(F)(F)F)cc3)c(C(=O)N(C)C)c2)cc1Cl [Compound 1-18, 2-chloro-4-(4-{3-dimethylcarbamoyl-4-[(4′-trifluoromethylbiphenyl-2-carbonyl)amino]phenyl}butyryloxy)benzoic acid methyl ester]
16 | < 10 | COC(=O)c1ccc(-c2nc(C)ccc2C(=O)Nc2ccc(CCCC(=O)Oc3c(C)cc(C(=O)OC)cc3C(=O)OC)cc2C(=O)N(C)C)cc1 [Compound 4-2, 4-[4-(3-dimethylcarbamoyl-4-{[2-(4-methoxycarbonylphenyl)-6-methylpyridine-3-carbonyl]amino}phenyl)butyryloxy]-5-methylisophthalic acid dimethyl ester]
17 | < 10 | COc1cc(C(=O)OCC(=O)N(C)C)cc(Cl)c1OC(=O)CCCc1ccc(NC(=O)c2ccc(C)nc2-c2ccc(C(F)(F)F)cc2)c(C(=O)N(C)C)c1 [Compound 1-113, 3-chloro-4-[4-(3-dimethylcarbamoyl-4-{[6-methyl-2-(4-trifluoromethylphenyl)pyridine-3-carbonyl]amino}phenyl)butyryloxy]-5-methoxybenzoic acid dimethylcarbamoylmethyl ester]
18 | < 10 | COC(=O)c1ccc(OC(=O)CCCc2ccc(NC(=O)c3ccccc3-c3ccc(C(F)(F)F)cc3)c(C(=O)N(C)C)c2)c(OC)c1 [Compound 1-12, 4-(4-{3-dimethylcarbamoyl-4-[(4′-trifluoromethylbiphenyl-2-carbonyl)amino]phenyl}butyryloxy)-3-methoxybenzoic acid methyl ester]
